Reference: ChEMBL document CHEMBL1201862, “PubChem BioAssay data set” (2004)
Active and inactive are the calls of the source.

Assays:
[1] = target: Cytochrome P450 3A4 (Homo sapiens, UniProt P08684);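 note: CYP3A4 tested as one member of a cytochrome P450 panel screen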
[2] = target: Cytochrome P450 2D6 (Homo sapiens, UniProt P10635);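 note: CYP2D6 member of a cytochrome P450 panel assay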
[3] = target: Cytochrome P450 2C19 (Homo sapiens, UniProt P33261); assay: Cytochrome panel assay with activity outcomes. Panel member name: p450-cyp2c19 Compounds with AC50 equal or less than 10 uM are considered active; assay type: functional; conditions: read-out: AC50
[4] = target: Large T antigen (Simian virus 40, UniProt P03070); assay type: functional, Betapolyomavirus macacae;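 note: Confirmatory-stage PubChem screen for compounds that inhibit SV40 T antigen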
[5] = target: T1, Corticotropin-releasing factor receptor 2/Corticotropin-releasing factor-binding protein (Homo sapiens, UniProt P24387+Q13324); assay: activators of CRF receptor 2 with binding protein – uHTS hits, confirmation (AID 602473); assay type: functional; conditions: read-out: EC50_Mean
T1 sequence (Q13324 whole entry): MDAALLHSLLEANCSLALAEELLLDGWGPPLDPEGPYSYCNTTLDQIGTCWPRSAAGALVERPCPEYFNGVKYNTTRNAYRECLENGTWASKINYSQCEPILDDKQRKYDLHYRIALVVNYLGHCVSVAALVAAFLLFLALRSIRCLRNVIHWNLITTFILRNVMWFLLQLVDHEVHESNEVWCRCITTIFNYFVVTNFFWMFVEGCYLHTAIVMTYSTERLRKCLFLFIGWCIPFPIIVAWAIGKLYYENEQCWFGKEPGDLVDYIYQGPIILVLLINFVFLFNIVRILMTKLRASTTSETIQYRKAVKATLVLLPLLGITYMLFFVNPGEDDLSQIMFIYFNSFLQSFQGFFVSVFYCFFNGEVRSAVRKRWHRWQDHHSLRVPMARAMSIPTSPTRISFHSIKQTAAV
T1 sequence (P24387 whole entry): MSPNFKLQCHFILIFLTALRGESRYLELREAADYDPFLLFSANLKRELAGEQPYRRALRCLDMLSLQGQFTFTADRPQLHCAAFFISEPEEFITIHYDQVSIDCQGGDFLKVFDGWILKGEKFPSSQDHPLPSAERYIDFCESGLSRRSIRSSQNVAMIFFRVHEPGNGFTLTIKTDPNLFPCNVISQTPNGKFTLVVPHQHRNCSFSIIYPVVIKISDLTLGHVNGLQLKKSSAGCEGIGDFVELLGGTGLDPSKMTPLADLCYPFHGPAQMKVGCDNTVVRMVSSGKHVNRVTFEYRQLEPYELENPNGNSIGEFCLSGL

[6] = target: T2, RNA-binding protein pos-1 (Caenorhabditis elegans, UniProt G5EF15); assay: disruptors of C. elegans POS-1 RNA interaction – biochemical, fluorescence polarization, dose response (AID 1964);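 note: purified POS-1 fused to maltose binding protein made in E. coli; potency of compounds blocking POS-1 binding to fluorescent RNA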
T2 sequence (G5EF15 whole entry): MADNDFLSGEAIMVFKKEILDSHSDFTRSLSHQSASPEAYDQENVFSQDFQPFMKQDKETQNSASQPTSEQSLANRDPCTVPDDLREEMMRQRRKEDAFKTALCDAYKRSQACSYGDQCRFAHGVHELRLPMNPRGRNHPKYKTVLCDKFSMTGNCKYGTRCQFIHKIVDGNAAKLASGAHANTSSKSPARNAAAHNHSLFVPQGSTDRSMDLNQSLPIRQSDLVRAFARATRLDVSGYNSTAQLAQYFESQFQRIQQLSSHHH

[7] = target: T3, Zinc finger protein mex-5 (Caenorhabditis elegans, UniProt Q9XUB2); assay: potency of MEX-5 RNA-binding blockers – biochemical, C. elegans, fluorescence polarization, dose response (AID 1960)
T3 sequence (Q9XUB2 whole entry): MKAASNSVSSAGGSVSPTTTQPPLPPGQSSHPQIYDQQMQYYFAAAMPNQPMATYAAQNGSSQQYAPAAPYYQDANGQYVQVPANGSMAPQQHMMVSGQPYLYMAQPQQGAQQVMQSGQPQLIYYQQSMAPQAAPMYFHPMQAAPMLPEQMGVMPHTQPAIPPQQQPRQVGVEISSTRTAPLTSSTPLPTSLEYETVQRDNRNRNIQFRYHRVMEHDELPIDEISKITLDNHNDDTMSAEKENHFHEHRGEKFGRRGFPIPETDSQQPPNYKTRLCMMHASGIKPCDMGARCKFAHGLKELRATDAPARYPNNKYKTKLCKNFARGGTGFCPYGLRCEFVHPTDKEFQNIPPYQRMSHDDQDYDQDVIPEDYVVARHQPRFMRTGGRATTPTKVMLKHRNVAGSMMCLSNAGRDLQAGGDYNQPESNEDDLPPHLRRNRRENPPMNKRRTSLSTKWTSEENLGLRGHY

[8] = target: T4, Replicative DNA helicase DnaB (Mycobacterium tuberculosis, UniProt P9WMR3); assay: DnaB intein splicing inhibitors, dose response, biochemical, cell-free fluorescence (AID 449749); assay type: functional
T4 sequence (P9WMR3 whole entry): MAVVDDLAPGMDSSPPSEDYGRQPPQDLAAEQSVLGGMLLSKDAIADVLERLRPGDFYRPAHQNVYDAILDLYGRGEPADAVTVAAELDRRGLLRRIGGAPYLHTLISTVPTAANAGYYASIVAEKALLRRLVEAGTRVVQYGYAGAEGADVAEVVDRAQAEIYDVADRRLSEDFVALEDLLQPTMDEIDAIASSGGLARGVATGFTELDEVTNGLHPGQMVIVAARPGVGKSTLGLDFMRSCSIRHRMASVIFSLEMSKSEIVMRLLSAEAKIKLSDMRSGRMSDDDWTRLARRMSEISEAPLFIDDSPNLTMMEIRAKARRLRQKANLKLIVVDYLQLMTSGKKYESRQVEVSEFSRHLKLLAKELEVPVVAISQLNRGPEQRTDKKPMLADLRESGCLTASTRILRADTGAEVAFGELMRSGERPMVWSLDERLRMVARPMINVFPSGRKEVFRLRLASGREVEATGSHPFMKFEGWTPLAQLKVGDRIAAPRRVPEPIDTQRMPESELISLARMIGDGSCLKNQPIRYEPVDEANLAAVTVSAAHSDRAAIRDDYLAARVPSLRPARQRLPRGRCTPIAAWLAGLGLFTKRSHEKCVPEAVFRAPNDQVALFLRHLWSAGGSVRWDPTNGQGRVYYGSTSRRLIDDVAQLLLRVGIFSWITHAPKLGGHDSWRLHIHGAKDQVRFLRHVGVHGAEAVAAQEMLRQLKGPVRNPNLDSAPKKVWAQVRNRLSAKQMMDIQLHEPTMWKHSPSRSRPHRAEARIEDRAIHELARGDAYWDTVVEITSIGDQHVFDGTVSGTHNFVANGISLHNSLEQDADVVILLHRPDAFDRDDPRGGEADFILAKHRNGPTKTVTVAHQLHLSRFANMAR

[9] = target: Cytochrome P450 2C9 (Homo sapiens, UniProt P11712)
[10] = target: T5, Protein RecA (Mycobacterium tuberculosis, UniProt P9WHJ3); assay: Fluorescence Cell-Free Homogeneous Dose Retest to Identify Inhibitors of RecA-Intein Splicing Activity. [Related pubchem assays (depositor defined):AID2097, AID2223, AID489010, AID492950]; assay type: functional
T5 sequence (P9WHJ3 whole entry): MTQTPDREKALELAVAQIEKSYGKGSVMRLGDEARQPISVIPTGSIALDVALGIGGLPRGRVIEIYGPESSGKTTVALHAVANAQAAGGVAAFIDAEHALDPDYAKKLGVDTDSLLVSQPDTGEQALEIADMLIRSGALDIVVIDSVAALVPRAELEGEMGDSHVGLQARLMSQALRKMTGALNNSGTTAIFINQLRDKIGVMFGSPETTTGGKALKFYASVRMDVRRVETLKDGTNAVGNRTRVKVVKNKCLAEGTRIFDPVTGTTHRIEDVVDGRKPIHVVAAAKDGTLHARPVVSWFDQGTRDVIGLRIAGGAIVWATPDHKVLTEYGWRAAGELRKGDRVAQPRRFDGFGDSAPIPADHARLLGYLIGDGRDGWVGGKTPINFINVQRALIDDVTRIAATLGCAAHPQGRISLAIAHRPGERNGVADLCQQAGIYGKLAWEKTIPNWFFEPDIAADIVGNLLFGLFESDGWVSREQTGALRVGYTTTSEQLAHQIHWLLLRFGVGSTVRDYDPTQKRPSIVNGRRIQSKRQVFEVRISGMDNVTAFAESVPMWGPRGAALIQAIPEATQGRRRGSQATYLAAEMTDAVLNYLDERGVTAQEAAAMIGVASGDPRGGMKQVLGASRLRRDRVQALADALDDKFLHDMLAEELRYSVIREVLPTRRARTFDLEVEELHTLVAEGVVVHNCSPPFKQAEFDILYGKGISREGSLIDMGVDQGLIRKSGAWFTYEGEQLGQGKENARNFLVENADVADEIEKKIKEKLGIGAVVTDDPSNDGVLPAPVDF

[11] = target: T6, Rac GTPase-activating protein 1 (Homo sapiens, UniProt Q9H0H5); assay: blockers of MgcRacGAP-driven Rac1 GTP hydrolysis – biochemical, ADP Hunter fluorescence, primary and confirmatory, confirmation (AID 624330); assay type: functional
T6 sequence (Q9H0H5 whole entry): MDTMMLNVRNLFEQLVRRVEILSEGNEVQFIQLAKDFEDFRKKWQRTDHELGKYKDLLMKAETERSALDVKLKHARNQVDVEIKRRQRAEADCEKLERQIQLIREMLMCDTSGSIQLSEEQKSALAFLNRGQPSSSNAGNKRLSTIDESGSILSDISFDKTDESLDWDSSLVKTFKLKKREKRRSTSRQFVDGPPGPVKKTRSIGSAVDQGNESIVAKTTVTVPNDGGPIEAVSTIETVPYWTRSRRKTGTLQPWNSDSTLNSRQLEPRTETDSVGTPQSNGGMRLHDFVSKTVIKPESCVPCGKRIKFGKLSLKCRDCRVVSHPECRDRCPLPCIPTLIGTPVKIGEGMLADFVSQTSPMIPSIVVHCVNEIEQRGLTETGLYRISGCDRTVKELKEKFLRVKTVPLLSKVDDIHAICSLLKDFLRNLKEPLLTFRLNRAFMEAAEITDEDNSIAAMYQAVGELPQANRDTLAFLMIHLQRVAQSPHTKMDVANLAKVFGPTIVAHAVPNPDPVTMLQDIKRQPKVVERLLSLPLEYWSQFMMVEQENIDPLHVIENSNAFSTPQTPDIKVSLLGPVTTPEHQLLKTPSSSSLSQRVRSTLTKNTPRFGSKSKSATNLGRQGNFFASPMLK

Cytochrome P450 2D6, sequence (P10635 whole entry): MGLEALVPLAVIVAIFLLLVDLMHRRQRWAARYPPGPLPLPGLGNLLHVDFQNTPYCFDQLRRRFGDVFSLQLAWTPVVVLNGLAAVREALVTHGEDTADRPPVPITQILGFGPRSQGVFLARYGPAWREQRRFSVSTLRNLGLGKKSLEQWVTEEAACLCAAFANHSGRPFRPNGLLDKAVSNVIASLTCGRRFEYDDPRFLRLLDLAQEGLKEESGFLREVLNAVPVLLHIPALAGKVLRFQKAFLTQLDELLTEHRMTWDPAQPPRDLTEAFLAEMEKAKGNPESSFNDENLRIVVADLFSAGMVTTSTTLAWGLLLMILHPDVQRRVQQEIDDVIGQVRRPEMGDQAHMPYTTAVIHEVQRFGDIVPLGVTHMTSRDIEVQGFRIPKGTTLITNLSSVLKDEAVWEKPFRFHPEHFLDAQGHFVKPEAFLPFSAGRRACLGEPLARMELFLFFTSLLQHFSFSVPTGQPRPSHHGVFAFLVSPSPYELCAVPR
Large T antigen, sequence (P03070 whole entry): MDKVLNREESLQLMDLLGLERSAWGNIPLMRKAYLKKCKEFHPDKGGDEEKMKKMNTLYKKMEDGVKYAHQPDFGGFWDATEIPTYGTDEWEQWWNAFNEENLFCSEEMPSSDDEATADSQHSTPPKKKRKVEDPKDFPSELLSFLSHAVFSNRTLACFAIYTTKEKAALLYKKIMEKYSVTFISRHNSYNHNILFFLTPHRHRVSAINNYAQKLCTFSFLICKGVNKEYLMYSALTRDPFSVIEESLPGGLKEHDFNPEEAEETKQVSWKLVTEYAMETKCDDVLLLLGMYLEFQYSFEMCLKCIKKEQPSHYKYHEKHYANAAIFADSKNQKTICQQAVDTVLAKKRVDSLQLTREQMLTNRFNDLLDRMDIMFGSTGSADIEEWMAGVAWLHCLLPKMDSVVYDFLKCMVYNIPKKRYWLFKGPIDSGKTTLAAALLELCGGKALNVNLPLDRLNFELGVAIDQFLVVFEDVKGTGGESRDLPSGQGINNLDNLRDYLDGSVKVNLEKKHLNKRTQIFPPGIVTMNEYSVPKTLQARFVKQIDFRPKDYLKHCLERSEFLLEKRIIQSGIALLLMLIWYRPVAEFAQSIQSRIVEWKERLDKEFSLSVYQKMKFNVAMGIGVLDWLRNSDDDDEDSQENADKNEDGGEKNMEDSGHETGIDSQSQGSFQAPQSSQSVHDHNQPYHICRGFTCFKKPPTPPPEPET
Cytochrome P450 2C19, sequence (P33261 whole entry): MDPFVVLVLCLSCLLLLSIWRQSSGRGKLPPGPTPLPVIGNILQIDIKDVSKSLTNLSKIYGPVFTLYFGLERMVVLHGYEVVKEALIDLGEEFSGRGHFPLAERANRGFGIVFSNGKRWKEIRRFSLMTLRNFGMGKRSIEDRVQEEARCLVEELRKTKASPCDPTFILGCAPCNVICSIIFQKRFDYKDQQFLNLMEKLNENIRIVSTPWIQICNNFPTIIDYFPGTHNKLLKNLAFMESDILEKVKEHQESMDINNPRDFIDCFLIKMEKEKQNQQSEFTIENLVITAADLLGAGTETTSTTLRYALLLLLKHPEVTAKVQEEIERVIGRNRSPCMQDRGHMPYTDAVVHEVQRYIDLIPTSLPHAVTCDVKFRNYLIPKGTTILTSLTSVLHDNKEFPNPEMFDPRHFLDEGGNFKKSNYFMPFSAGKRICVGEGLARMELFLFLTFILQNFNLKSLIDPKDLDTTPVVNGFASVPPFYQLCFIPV
Cytochrome P450 3A4, sequence (P08684 whole entry): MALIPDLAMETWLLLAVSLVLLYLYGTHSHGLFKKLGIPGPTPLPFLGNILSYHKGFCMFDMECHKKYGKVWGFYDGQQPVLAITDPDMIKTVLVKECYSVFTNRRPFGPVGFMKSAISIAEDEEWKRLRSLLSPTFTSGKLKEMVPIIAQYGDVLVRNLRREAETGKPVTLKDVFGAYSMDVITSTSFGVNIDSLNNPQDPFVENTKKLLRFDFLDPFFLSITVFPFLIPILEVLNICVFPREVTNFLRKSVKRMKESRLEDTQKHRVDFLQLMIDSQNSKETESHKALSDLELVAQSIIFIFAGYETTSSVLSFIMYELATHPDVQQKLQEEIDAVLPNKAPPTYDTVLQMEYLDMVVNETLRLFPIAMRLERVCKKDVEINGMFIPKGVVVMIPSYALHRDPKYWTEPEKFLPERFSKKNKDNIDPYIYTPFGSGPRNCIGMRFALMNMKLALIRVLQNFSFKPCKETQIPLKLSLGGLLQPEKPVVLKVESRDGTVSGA
Cytochrome P450 2C9, sequence (P11712 whole entry): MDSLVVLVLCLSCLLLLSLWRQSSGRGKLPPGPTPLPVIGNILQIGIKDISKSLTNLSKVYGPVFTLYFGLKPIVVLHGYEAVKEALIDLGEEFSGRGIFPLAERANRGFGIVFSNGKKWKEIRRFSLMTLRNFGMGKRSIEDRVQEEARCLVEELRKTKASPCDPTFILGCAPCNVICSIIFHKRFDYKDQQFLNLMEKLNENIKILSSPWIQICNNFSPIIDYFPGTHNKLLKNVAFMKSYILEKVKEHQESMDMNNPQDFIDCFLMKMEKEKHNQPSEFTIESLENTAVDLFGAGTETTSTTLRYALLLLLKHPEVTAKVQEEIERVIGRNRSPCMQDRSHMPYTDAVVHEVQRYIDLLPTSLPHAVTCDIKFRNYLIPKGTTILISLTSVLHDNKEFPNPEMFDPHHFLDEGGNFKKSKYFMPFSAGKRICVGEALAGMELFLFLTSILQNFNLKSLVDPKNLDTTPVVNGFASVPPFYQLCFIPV

Compound: CCOC(=O)CC(=O)CSc1n[nH]c2c3ccccc3nc-2n1
- AC50 [1]: 2.51 µM (inconclusive)
- AC50 [2]: 3.55 µM (inconclusive)

Compound: CNc1ncnc2ccc(-c3cccc(NS(C)(=O)=O)c3)cc12
- AC50 [3]: 20 µM (inconclusive)
- AC50 [2]: 39.8 µM (inconclusive)

Compound: CCCCC(=O)NCCc1c(Cc2ccccc2)[nH]c2ccccc12
- AC50 [3]: 20 µM (inconclusive)
- AC50 [2]: 39.8 µM (inconclusive)

Compound: O=C1CC(=O)N(Cc2ccco2)C(=S)N1
- IC50 [4]: 55.5 µM (active)

Compound: CC1CCCN(c2ccc(N)cc2C(N)=O)C1 (configuration not stated)
- IC50 [4]: 44.6 µM (active)

Compound: COc1cc(/C=C2/C(C)=C(C#N)c3nc(N)c(C#N)c(C)c32)ccc1OCC(=O)O
- IC50 [4]: 89.5 µM (active)

Compound: C#CCOC(=O)NC(/C=C/CCCC)c1ccccc1 (configuration not stated)
- AC50 [3]: 25.1 µM (inconclusive)
- AC50 [2]: 20 µM (inconclusive)

Compound: COc1cccc(C(=O)NC2CC3CCCC(C2)N3CC(=O)Nc2ccc(N(C)C)cc2)c1 (configuration not stated)
- IC50 [4]: 6.24 µM (active)

Compound: O=C(O)C(=O)/C(=C\c1cccc2ccccc12)c1ccc2ccccc2n1
- EC50 [5]: 7.6 µM (active)
- EC50 [6]: 164 µM (active)
- EC50 [7]: 34.2 µM (active)

Compound: CCCSc1nnc2nc3c(nn12)c1ccccc1n3C
- EC50 [6]: > 300 µM (not active)
- EC50 [7]: 76.6 µM (active)

Compound: COc1cc(OC)c(C2CC(=O)N3CN(c4ccccc4C)CSC3=C2C#N)cc1OC (configuration not stated)
- IC50 [4]: 54.8 µM (active)

Compound: O=C(Nc1ccc(O)cc1)c1ccc2c(c1)C(=O)N(N1C(=O)c3ccccc3C1=O)C2=O
- IC50 [4]: 21.4 µM (active)

Compound: COc1ccc(NC2CCCN(C(=O)CCCn3cncn3)C2)cc1 (configuration not stated)
- IC50 [4]: 52.6 µM (active)

Compound: O=C(CSCc1c(Cl)cccc1Cl)NCC1CCCO1 (configuration not stated)
- EC50 [6]: > 300 µM (not active)
- EC50 [7]: > 300 µM (not active)

Compound: CCC(C)N1C(=O)/C(=C\NNc2nc3c(c(=O)n(C)c(=O)n3C)n2C)C(=O)NC1=S (configuration not stated)
- EC50 [6]: > 300 µM (not active)
- EC50 [7]: 38.6 µM (active)

Compound: N#CC(C#N)=Cc1ccc(-c2ccccc2)o1
- EC50 [6]: 6.78 µM (inconclusive)
- EC50 [7]: 22.5 µM (inconclusive)

Compound: Cc1cc(/C=C2\C(=O)NC(=O)N(Cc3ccco3)C2=O)c(C)n1-c1ccc(C(=O)O)cc1
- EC50 [7]: > 300 µM (inconclusive)

Compound: O=C(Nc1cccc(OC(=O)c2ccco2)c1)c1ccco1
- AC50 [8]: 21.4 µM (active)
- AC50 [9]: 25.1 µM (inconclusive)
- EC50 [10]: 10.1 µM (active)

Compound: CN1C(=O)/C(=C\c2ccc(N3CCCCC3)o2)C(=O)NC1=S
- EC50 [6]: > 300 µM (not active)
- EC50 [7]: > 300 µM (not active)

Compound: FC(F)(F)c1nc(N2CCCC2)ncc1-c1nnnn1-c1ccccc1
- AC50 [2]: 12.6 µM (inconclusive)

Compound: CC(C)(C)NS(=O)(=O)c1ccc(NC(=O)NC2CCCCC2)cc1
- AC50 [3]: 25.1 µM (inconclusive)
- AC50 [2]: 17.8 µM (inconclusive)

Compound: Cc1cc(C)cc(NS(=O)(=O)c2ccc3ncc(C(=O)N4CCc5ccccc54)c(O)c3c2)c1
- EC50 [5]: > 53 µM (inactive)

Compound: Cc1cc2c3c(c1C)C1(C(=O)N3C(C)(C)CC2C)C(C#N)=C(N)OC2=C1C(=O)CC(C)(C)C2 (configuration not stated)
- EC50 [6]: > 300 µM (not active)
- EC50 [7]: > 300 µM (not active)

Compound: Sc1nnc(COc2ccccc2)n1/N=C/C=C/c1ccco1
- IC50 [4]: > 100 µM (active)

Compound: CCOc1cc(/C=N/Nc2ncnc(Cl)c2N)ccc1O
- IC50 [4]: 6.12 µM (active)
- IC50 [11]: 25.2 µM (active)

Compound: COc1cc(C=C2C(=O)NC(=O)NC2=O)ccc1O
- IC50 [4]: 28 µM (active)
